Data as given in patent US20240158370A1, “CK1 alpha AND DUAL CK1 alpha / GSPT1 DEGRADING COMPOUNDS” (Innovo Therapeutics, Inc., priority 2022, published 2024).

Assays:
CK1α = molecular target: T1, CK1α (Homo sapiens, UniProt P48729+Q96SW2); assay: HiBiT degradation assay, CK1α, Procedure A; type: cell-based; conditions: six hours
T1 construct: CSNK1A1-HiBit KI HEK293(LgBit) Cells; host or cells: HEK293(LgBit) knock-in cells
How it was run: (§1)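 Six-hour treatment at 37° C, ten doses between 10 μM and 0.005 μM, then HiBiT lytic luminescence. Fitted DC50 and Ymin.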

GSPT1 = GSPT1 (Homo sapiens, UniProt P15170+Q96SW2); assay: HiBiT degradation assay, GSPT1, Procedure A; type: cell-based; design: HiBit-GSPT1 KI HEK293(LgBit) Cells; host or cells: HEK293(LgBit) knock-in cells; conditions: six hours
How it was run: as §1

GSPT1, sequence (P15170 whole entry): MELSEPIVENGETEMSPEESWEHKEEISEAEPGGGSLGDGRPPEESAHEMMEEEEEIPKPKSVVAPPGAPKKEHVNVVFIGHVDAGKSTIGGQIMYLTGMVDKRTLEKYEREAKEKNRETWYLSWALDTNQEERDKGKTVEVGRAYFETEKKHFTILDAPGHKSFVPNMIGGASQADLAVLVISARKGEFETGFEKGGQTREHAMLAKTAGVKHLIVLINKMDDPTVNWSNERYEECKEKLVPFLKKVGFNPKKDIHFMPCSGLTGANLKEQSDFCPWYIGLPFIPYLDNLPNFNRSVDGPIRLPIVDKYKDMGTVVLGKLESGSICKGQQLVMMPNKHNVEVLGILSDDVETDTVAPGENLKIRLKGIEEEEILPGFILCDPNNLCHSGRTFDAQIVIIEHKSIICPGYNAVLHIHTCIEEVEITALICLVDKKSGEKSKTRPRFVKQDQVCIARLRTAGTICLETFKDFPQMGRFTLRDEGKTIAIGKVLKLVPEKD
GSPT1, sequence (Q96SW2 whole entry): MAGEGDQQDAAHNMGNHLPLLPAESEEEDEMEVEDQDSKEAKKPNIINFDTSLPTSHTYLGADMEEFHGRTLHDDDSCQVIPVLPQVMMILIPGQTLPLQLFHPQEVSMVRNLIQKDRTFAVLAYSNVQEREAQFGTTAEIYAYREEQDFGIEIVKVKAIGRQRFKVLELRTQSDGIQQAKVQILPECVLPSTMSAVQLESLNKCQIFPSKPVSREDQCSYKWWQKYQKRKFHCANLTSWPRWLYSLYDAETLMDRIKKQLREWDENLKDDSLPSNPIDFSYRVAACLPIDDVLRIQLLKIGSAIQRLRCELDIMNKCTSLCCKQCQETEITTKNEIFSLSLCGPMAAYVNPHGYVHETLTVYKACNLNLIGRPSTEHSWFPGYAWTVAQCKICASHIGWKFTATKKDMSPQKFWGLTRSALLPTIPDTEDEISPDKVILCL
GSPT1, sequence (Q16531 whole entry partner): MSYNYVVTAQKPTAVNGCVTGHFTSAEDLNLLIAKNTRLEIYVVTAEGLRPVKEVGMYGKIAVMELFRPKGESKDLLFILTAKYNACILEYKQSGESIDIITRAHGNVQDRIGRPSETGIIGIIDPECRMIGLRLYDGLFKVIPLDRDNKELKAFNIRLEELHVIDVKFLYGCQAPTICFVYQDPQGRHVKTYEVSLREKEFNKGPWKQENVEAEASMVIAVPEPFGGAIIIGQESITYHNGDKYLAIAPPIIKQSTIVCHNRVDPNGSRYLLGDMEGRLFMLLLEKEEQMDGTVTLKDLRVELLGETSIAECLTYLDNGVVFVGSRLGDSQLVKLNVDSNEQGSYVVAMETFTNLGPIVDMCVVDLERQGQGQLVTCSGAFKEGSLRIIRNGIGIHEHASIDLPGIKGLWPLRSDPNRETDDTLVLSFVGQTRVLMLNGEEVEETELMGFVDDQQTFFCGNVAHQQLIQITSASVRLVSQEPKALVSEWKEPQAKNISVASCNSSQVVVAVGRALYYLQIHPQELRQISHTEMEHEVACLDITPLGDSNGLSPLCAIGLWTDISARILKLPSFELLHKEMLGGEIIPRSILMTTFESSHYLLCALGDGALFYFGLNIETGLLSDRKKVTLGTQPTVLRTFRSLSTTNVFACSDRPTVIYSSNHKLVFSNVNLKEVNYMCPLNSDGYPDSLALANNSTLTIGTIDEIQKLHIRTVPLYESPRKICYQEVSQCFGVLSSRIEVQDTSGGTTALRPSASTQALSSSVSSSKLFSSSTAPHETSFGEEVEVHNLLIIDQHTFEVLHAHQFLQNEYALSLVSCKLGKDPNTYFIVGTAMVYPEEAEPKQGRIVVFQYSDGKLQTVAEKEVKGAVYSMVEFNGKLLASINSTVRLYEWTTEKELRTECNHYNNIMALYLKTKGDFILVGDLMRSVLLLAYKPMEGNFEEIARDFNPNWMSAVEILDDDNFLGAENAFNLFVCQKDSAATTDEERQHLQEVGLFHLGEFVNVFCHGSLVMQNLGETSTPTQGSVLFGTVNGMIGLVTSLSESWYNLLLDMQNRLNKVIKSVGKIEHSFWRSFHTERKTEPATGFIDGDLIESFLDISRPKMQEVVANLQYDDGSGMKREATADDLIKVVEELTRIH
T1 sequence (P48729 whole entry): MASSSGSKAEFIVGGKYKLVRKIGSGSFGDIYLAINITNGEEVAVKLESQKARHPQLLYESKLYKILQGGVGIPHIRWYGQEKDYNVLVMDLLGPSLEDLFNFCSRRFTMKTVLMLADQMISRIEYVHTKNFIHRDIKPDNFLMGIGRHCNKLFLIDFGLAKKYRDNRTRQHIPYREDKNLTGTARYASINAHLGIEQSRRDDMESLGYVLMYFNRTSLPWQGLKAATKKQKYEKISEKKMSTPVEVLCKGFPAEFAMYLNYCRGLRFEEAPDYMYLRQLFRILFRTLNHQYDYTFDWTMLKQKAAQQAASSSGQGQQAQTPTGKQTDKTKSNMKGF
T1 sequence (Q96SW2 whole entry): as the sequence (Q96SW2 whole entry) above
T1 sequence (Q16531 whole entry partner): as the sequence (Q16531 whole entry partner) above

Row | Structure (SMILES) | CK1α Ymin (CK1α) | DC50 (CK1α) | DC50 (GSPT1) | GSPT1 Ymin (GSPT1)
1 | Cc1ccc(-c2nc(-c3ccc4c(c3)CN(C3CCC(=O)NC3=O)C4=O)cn2C)cc1Cl (centres unmarked) [Example 564] | C (C = 0-10% remaining) | < 25 nM | < 25 nM | F (F = >75-100% remaining)
2 | COc1ccc(-c2nc(-c3ccc4c(c3)CN(C3CCC(=O)NC3=O)C4=O)cn2C)cc1C (centres unmarked) [Example 565] | C (C = 0-10% remaining) | < 25 nM | ≥ 25 nM | F (F = >75-100% remaining)
3 | Cc1ccc(-c2nc(-c3ccc4c(c3)CN(C3CCC(=O)NC3=O)C4=O)cn2C)cc1C (centres unmarked) [Example 566] | C (C = 0-10% remaining) | < 25 nM | ≥ 25 nM | E (E = >25-75% remaining)
4 | Cc1ccc(-c2nc(-c3ccc4c(c3)CN(C3CCC(=O)NC3=O)C4=O)cn2C)cc1 (centres unmarked) [Example 568] | C (C = 0-10% remaining) | < 25 nM | < 25 nM | F (F = >75-100% remaining)
5 | Cn1cc(-c2ccc3c(c2)CN(C2CCC(=O)NC2=O)C3=O)nc1-c1ccc(OC(F)F)cc1 (centres unmarked) [Example 569] | C (C = 0-10% remaining) | < 25 nM | < 25 nM | F (F = >75-100% remaining)
6 | Cc1cccc(-c2nc(-c3ccc4c(c3)CN(C3CCC(=O)NC3=O)C4=O)cn2C)c1 (centres unmarked) [Example 570] | C (C = 0-10% remaining) | < 25 nM | ≥ 25 nM | E (E = >25-75% remaining)
7 | Cc1ccccc1-c1nc(-c2ccc3c(c2)CN(C2CCC(=O)NC2=O)C3=O)cn1C (centres unmarked) [Example 571] | C (C = 0-10% remaining) | < 25 nM | < 25 nM | F (F = >75-100% remaining)
8 | Cn1cc(-c2ccc3c(c2)CN(C2CCC(=O)NC2=O)C3=O)nc1-c1ccc(C#N)nc1 (centres unmarked) [Example 572] | D (D = >10- 25% remaining) | < 25 nM | < 25 nM | F (F = >75-100% remaining)
9 | Cc1c(N)cccc1-c1nc(-c2ccc3c(c2)CN(C2CCC(=O)NC2=O)C3=O)cn1C (centres unmarked) [Example 573] | C (C = 0-10% remaining) | < 25 nM | < 25 nM | E (E = >25-75% remaining)
10 | Cc1cc(-c2nc(-c3ccc4c(c3)CN(C3CCC(=O)NC3=O)C4=O)cn2C)ccc1Cl (centres unmarked) [Example 574] | C (C = 0-10% remaining) | < 25 nM | ≥ 25 nM | E (E = >25-75% remaining)
11 | CCCCCCc1ccc(-c2nc(-c3ccc4c(c3)CN(C3CCC(=O)NC3=O)C4=O)cn2C)cc1 (centres unmarked) [Example 575] | D (D = >10- 25% remaining) | < 25 nM | ≥ 25 nM | F (F = >75-100% remaining)
12 | Cc1cc(C)cc(-c2nc(-c3ccc4c(c3)CN(C3CCC(=O)NC3=O)C4=O)cn2C)c1 (centres unmarked) [Example 576] | C (C = 0-10% remaining) | < 25 nM | < 25 nM | F (F = >75-100% remaining)
13 | CCCCc1ccc(-c2nc(-c3ccc4c(c3)CN(C3CCC(=O)NC3=O)C4=O)cn2C)cc1 (centres unmarked) [Example 577] | C (C = 0-10% remaining) | < 25 nM | < 25 nM | E (E = >25-75% remaining)
14 | COc1cccc(-c2nc(-c3ccc4c(c3)CN(C3CCC(=O)NC3=O)C4=O)cn2C)c1 (centres unmarked) [Example 578] | C (C = 0-10% remaining) | < 25 nM | < 25 nM | E (E = >25-75% remaining)
15 | COc1cc(-c2nc(-c3ccc4c(c3)CN(C3CCC(=O)NC3=O)C4=O)cn2C)ccc1Cl (centres unmarked) [Example 579] | C (C = 0-10% remaining) | < 25 nM | < 25 nM | F (F = >75-100% remaining)
16 | Cn1cc(-c2ccc3c(c2)CN(C2CCC(=O)NC2=O)C3=O)nc1-c1cccc(OC2CC2)c1 (centres unmarked) [Example 580] | C (C = 0-10% remaining) | < 25 nM | ≥ 25 nM | F (F = >75-100% remaining)
17 | Cn1cc(-c2ccc3c(c2)CN(C2CCC(=O)NC2=O)C3=O)nc1-c1ccc(OC2CC2)cc1 (centres unmarked) [Example 581] | C (C = 0-10% remaining) | < 25 nM | < 25 nM | F (F = >75-100% remaining)
18 | Cn1cc(-c2ccc3c(c2)CN(C2CCC(=O)NC2=O)C3=O)nc1-c1ccc(C2CCCCC2)cc1 (centres unmarked) [Example 582] | C (C = 0-10% remaining) | < 25 nM | < 25 nM | F (F = >75-100% remaining)

Row | Structure (SMILES) | CK1α Ymin (CK1α) | DC50 (CK1α) | DC50 (GSPT1) | GSPT1 Ymin (GSPT1)
19 | COc1cc(-c2nc(-c3ccc4c(c3)CN(C3CCC(=O)NC3=O)C4=O)cn2C)ccc1F (centres unmarked) [Example 583] | C (C = 0-10% remaining) | < 25 nM | < 25 nM | F (F = >75-100% remaining)
20 | COc1ccc(-c2nc(-c3ccc4c(c3)CN(C3CCC(=O)NC3=O)C4=O)cn2C)cc1Cl (centres unmarked) [Example 584] | C (C = 0-10% remaining) | < 25 nM | ≥ 25 nM | F (F = >75-100% remaining)
21 | Cn1cc(-c2ccc3c(c2)CN(C2CCC(=O)NC2=O)C3=O)nc1-c1ccn2ccnc2c1 (centres unmarked) [Example 585] | D (D = >10- 25% remaining) | ≥ 25 nM | < 25 nM | F (F = >75-100% remaining)
22 | Cn1cc(-c2ccc3c(c2)CN(C2CCC(=O)NC2=O)C3=O)nc1-c1cc(F)cc(Cl)c1 (centres unmarked) [Example 586] | C (C = 0-10% remaining) | < 25 nM | ≥ 25 nM | F (F = >75-100% remaining)
23 | Cn1cc(-c2ccc3c(c2)CN(C2CCC(=O)NC2=O)C3=O)nc1-c1ccc(C(F)F)cc1 (centres unmarked) [Example 587] | C (C = 0-10% remaining) | < 25 nM | ≥ 25 nM | F (F = >75-100% remaining)
24 | Cn1ncc(-c2ccc3c(c2)CN(C2CCC(=O)NC2=O)C3=O)c1C1=CCCCC1 (centres unmarked) [Example 589] | E (E = >25-75% remaining) | < 25 nM | ≥ 25 nM | F (F = >75-100% remaining)
25 | CN1CCC(c2c(-c3ccc4c(c3)CN(C3CCC(=O)NC3=O)C4=O)cnn2C)CC1 (centres unmarked) [Example 590] | E (E = >25-75% remaining) | ≥ 25 nM | ≥ 25 nM | F (F = >75-100% remaining)
26 | CN1CC=C(c2c(-c3ccc4c(c3)CN(C3CCC(=O)NC3=O)C4=O)cnn2C)CC1 (centres unmarked) [Example 591] | E (E = >25-75% remaining) | ≥ 25 nM | < 25 nM | F (F = >75-100% remaining)
27 | Cn1ncc(-c2ccc3c(c2)CN(C2CCC(=O)NC2=O)C3=O)c1C1CCOC1 (centres unmarked) [Example 592] | E (E = >25-75% remaining) | ≥ 25 nM | ≥ 25 nM | F (F = >75-100% remaining)
28 | Cn1ncc(-c2ccc3c(c2)CN(C2CCC(=O)NC2=O)C3=O)c1C1=CCOC1 (centres unmarked) [Example 593] | E (E = >25-75% remaining) | ≥ 25 nM | ≥ 25 nM | F (F = >75-100% remaining)
29 | Cn1cnc(-c2ccc3c(c2)CN(C2CCC(=O)NC2=O)C3=O)c1C1=CCCCC1 (centres unmarked) [Example 595] | D (D = >10- 25% remaining) | < 25 nM | ≥ 25 nM | F (F = >75-100% remaining)
30 | CN1CC=C(c2c(-c3ccc4c(c3)CN(C3CCC(=O)NC3=O)C4=O)ncn2C)CC1 (centres unmarked) [Example 596] | C (C = 0-10% remaining) | ≥ 25 nM | ≥ 25 nM | F (F = >75-100% remaining)
31 | Cn1cnc(-c2ccc3c(c2)CN(C2CCC(=O)NC2=O)C3=O)c1C1CCOC1 (centres unmarked) [Example 597] | E (E = >25-75% remaining) | ≥ 25 nM | ≥ 25 nM | F (F = >75-100% remaining)
32 | Cn1cnc(-c2ccc3c(c2)CN(C2CCC(=O)NC2=O)C3=O)c1C1=CCOC1 (centres unmarked) [Example 598] | D (D = >10- 25% remaining) | < 25 nM | ≥ 25 nM | E (E = >25-75% remaining)
33 | Cn1nc(-c2ccc3c(c2)CN(C2CCC(=O)NC2=O)C3=O)nc1C1CCOCC1 (centres unmarked) [Example 599, 3-(5-(1-methyl-5-(tetrahydro-2H-pyran-4-yl)-1H-1,2,4-triazol-3-yl)-1-oxoisoindolin-2-yl)piperidine-2,6-dione] | E (E = >25-75% remaining) | < 25 nM | ≥ 25 nM | F (F = >75-100% remaining)
34 | CC1CCN(c2nc(-c3ccc4c(c3)CN(C3CCC(=O)NC3=O)C4=O)nn2C)CC1 (centres unmarked) [Example 600, 3-(5-(1-methyl-5-(4-methylpiperidin-1-yl)-1H-1,2,4-triazol-3-yl)-1-oxoisoindolin-2-yl)piperidine-2,6-dione] | D (D = >10- 25% remaining) | < 25 nM | ≥ 25 nM | F (F = >75-100% remaining)
35 | Cn1nc(-c2ccc3c(c2)CN(C2CCC(=O)NC2=O)C3=O)nc1N1CCc2ccccc2C1 (centres unmarked) [Example 603, 3-(5-(5-(3,4-dihydroisoquinolin-2 (1H)-yl)-1-methyl-1H-1,2,4-triazol-3-yl)-1-oxoisoindolin-2-yl)piperidine-2,6-dione] | D (D = >10- 25% remaining) | < 25 nM | ≥ 25 nM | F (F = >75-100% remaining)
